Test results taken from patent US20260053931A1, “MDM2 TARGETING PROTACS” (THE WISTAR INSTITUTE OF ANATOMY AND BIOLOGY, priority 2023, published 2026).

Tests used:
[1] = test system: p53-null mouse sarcoma cells; test: Murine Mdm2+/+ p53-null sarcoma cells, Western blot and MTT; assay type: cell-based; details: increasing concentrations, MTT assay, 48 hrs
[2] = biological target: T1, VHL complex (Homo sapiens, UniProt P40337); test: Inhibition of HIF-1α peptide binding to the VHL complex using HTRF (Table 3); details: mean ± S.E.M. of three replications; read-out: VHL-HIFa peptide IC50
T1 construct: purchased R&D systems E3-655-025
T1 sequence (P40337 whole entry): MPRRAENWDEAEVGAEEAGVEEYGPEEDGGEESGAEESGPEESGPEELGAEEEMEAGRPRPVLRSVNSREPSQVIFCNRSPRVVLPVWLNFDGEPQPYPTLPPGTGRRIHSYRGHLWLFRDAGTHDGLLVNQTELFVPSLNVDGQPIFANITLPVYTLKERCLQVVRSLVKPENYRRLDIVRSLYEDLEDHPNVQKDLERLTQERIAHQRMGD
T1 sequence (Q15370 whole entry partner): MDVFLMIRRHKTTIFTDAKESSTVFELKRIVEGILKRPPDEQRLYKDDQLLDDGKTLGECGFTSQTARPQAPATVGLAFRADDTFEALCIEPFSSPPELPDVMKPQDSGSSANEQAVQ
T1 sequence (Q15369 whole entry partner): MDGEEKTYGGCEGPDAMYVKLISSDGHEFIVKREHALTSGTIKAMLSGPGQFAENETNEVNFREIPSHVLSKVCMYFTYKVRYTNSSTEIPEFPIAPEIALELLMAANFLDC
T1 sequence (Q13617 whole entry partner): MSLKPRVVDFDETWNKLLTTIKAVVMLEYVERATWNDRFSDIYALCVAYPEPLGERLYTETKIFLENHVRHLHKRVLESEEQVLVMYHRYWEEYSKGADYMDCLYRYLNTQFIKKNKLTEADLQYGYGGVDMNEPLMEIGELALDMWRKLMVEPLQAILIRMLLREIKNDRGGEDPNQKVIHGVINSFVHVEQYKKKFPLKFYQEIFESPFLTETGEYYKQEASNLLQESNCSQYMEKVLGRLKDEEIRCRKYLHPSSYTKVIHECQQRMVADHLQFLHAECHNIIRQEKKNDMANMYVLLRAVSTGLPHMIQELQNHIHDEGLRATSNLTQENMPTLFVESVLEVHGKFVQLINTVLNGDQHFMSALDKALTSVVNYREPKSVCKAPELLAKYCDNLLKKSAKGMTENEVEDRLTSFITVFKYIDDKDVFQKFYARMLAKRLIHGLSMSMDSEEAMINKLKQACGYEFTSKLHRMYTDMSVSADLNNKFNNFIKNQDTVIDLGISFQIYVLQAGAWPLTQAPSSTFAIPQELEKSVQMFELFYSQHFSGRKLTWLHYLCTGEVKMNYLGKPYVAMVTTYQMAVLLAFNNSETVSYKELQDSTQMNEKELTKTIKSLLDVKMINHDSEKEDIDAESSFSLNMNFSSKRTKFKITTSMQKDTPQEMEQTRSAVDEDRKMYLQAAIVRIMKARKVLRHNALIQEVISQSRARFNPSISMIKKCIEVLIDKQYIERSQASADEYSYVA
T1 sequence (P62877 whole entry partner): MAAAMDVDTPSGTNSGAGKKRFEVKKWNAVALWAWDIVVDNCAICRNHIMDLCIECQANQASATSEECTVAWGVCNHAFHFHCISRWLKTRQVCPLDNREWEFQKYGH
Experimental: Assays contained 2 nM of HIS-VHL complex (R&D systems, E3-655-025), 2 nM of biotin-hydroxyproline-HIF1α peptide (Biotin-[…] (SEQ ID NO: 2), X=hydroxyproline), 0.3 nM anti-HIS-Tb HTRF donor antibody and 4 nM streptavidin-d2 HTRF acceptor (PerkinElmer) in a final volume of 10 μL of 25 mM HEPES, pH 7.4, 150 mM NaCl, 5 mM DTT, 0.005% Tween20 in white low volume 384-well plates. Both HIS-VHL complex and biotin-HIF1α peptide were pre-incubated with their respective HTRF antibodies for 15 min. Test compounds were solubilized at 10 mM in DMSO and concentration series was added to the assay plate using the Echo 650 acoustic liquid handling system by direct dilution. The final amount of DMSO added to the assay was 100 nL […]. Compounds were pre-incubated with HIS-VHL complex before the addition of the biotin-HIF1α peptide. After a 2 hr incubation, the HTRF signal was measured using the ClarioStar plate reader (BMG Labtech). […] IC50 values were determined from nonlinear regression fits of a data to a four parameter dose-response equation using XLFit (IDBS). Data are the means±S.E.M. of three replications. The data is described in Table 3 above.

[3] = biological target: MDM2-p53 (Homo sapiens, UniProt Q00987); test: Inhibition of MDM2 binding to p53 using HTRF (Table 3); details: mean ± S.E.M. of three replications
MDM2-p53, sequence (Q00987 whole entry): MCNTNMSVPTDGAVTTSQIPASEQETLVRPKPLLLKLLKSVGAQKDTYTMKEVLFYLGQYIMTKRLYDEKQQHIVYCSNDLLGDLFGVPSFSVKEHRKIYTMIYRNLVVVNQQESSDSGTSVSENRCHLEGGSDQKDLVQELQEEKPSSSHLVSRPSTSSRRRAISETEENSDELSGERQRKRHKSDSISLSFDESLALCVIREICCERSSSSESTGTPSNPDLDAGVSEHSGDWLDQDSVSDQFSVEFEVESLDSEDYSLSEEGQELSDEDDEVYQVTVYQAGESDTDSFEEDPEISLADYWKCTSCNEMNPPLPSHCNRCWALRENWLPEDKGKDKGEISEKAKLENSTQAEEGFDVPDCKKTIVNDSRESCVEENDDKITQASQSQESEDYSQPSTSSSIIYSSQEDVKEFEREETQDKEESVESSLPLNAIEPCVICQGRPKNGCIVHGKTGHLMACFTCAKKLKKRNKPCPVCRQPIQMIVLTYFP

[4] = test system: TAp73; test: Western blotting for TAp73 in TNBC cell lines; assay type: cell-based, human; details: five TNBC cell lines
Experimental: FIGS. 28A-28L show TAp73 is activated by the MDM2-PROTAC YX-02-030 and mediates apoptosis of p53-inactivated TNBC cells. A-C, RNA-seq (triplicates) was performed on MDA-MB-231 cells treated with the MDM2-PROTAC YX-02-030 (6 μM, 16 hr) or DMSO vehicle control or expressing MDM2 shRNA or non-targeting control shRNA (48 hr). A, Pathway analysis using Hallmark gene signatures. B, Heatmap of p53 family target genes of individual samples (3 each). C, Spearman's correlation of differentially expressed p53 family target genes between PROTAC-treated relative to DMSO vehicle control and MDM2 shRNA relative to non-targeting shRNA control; Spearman's correlation coefficient (p) and P-value indicated. D, qRT-PCR analysis (triplicate, 6 μM, 16 hr) to validate RNA-seq results. […] I, ChIP for TAp73 was performed with MDA-MB-231 cells following treatment with the MDM2-PROTAC YX-02-030 (6 μM, 16 hr) or DMSO vehicle control, and enrichment of TAp73 (triplicate; first normalized to input DNA then IgG control) was determined at the loci indicated. J and K, After 48 hr, MDA-MB-231 cells expressing two independent TAp73 shRNA or non-targeting shRNA (shNT) control were treated with MDM2-PROTAC YX-02-030 or DMSO vehicle control (6 μM, 16 hr). p53/TAp73 target genes were evaluated by Western blotting (J) and qRT-PCR (K, triplicate). […]

IC50 [2] [nM] | IC50 [3] [nM] | Structure (SMILES) | killing of p53-null sarcoma cells [1] | TAp73 protein level [4]
> 10000 | 11 ± 1.3 | CCOc1cc(C(C)(C)C)ccc1C1=N[C@@](C)(c2ccc(Cl)cc2)[C@@](C)(c2ccc(Cl)cc2)N1C(=O)N1CCN(CC(=O)O)CC1 (racemic) [YX-02-023, 2-(4-((4S,5R)-2-(4-(tert-butyl)-2-ethoxyphenyl)-4,5-bis(4-chlorophenyl)-4,5-dimethyl-4,5-dihydro-1H-imidazole-1-carbonyl)piperazin-1-yl)acetic acid] | not | –
– | – | CCOc1cc(C(C)(C)C)ccc1C1=NC(C)(c2ccc(Cl)cc2)C(C)(c2ccc(Cl)cc2)N1C(=O)N1CCN(CC(=O)NCCOCCOCCOCC(=O)N[C@H](C(=O)N2C[C@H](O)C[C@H]2C(=O)NCc2ccc(-c3scnc3C)cc2)C(C)(C)C)CC1 (stereo in doubt) [YX-02-030, (2S,4R)-1-((S)-2-(tert-butyl)-17-(4-((4S,5R)-2-(4-(tert-butyl)-2-ethoxyphenyl)-4,5-bis(4-chlorophenyl)-4,5-dimethyl-4,5-dihydro-1H-imidazole-1-carbonyl)piperazin-1-yl)-4,16-dioxo-6,9,12-trioxa-3,15-diazaheptadecanoyl)-4-hydroxy-N-(4-(4-methylthiazol-5-yl)benzyl)pyrrolidine-2-carboxamide] | – | levels of TAp73 protein increased
